Data reported in patent publication US10654834B2 (Venenum Biodesign, LLC, priority 2016, dated 2020).

Assays:
human TGR5 receptor = target: T1, human TGR5 receptor (Homo sapiens, UniProt Q8TDU6); assay: Human TGR5 cAMP production assay (hTGR5-CHO cells, DiscoveRx cAMP XS+ kit); format: cell-based; conditions: luminescent cAMP assay, read-out: Human TGR5 Lum. cAMP Activity (EC50)
T1 construct: host or cells: CHO-K1 (hTGR5-CHO)
T1 sequence (Q8TDU6 1-330): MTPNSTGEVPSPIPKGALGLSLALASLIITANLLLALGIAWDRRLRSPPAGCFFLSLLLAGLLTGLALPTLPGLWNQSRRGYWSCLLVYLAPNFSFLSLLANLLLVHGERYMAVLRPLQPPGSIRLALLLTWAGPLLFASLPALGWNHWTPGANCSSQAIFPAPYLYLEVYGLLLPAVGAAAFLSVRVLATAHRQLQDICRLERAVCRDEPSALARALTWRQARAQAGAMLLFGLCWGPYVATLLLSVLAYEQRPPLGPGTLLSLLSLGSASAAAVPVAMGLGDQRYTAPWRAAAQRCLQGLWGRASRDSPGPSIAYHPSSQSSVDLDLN
How it was run: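 CHO-K1 cells stably expressing hTGR5, in PBS with IBMX and cAMP antibody, treated with half-log compound dilutions for 1 h at room temperature. cAMP measured by enzyme-fragment complementation luminescence after overnight detection; EC50 values reported.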

mouse TGR5 receptor = target: T2, mouse TGR5 receptor (Mus musculus, UniProt Q80SS6); assay: Mouse TGR5 HTRF cAMP production assay (HEK293-EBNA cells, Cisbio cAMP HiRange kit); format: cell-based; conditions: HEK293-EBNA cells overexpressing mouse TGR5, HTRF cAMP assay
T2 construct: host or cells: HEK293-EBNA (293 c18, ATCC CRL10852)
T2 sequence (Q80SS6 1-329): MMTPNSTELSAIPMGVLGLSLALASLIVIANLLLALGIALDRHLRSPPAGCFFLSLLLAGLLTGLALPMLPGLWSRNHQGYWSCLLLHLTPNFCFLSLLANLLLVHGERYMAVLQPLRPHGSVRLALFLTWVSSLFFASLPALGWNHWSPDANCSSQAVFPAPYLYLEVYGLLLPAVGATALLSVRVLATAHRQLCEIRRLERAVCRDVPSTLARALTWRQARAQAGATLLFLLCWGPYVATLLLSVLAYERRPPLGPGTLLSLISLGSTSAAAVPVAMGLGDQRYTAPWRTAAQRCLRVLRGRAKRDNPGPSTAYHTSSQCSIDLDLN
How it was run: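 HEK293-EBNA cells stably expressing mouse TGR5 (episomal vector) were suspended in serum-free DMEM with 500 μM IBMX and exposed to 12-point half-log compound dilutions for 1 h at room temperature. cAMP was detected by HTRF (d2-cAMP/anti-cAMP cryptate, 1 h, room temperature), giving EC50 from duplicates.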

N[C@@H]1C[C@@H](C(=O)NCCc2ccc(C(F)(F)F)cc2)N(c2cc(N3CCC(CCNC(=O)NCCC(=O)O)CC3)nc(C(F)(F)F)n2)C1 [Compound 375, 3-(3-(2-(1-(6-((2S,4R)-4-amino-2-((4-(trifluoromethyl)phenethyl)carbamoyl)pyrrolidin-1-yl)-2-(trifluoromethyl)pyrimidin-4-yl)piperidin-4-yl)ethyl)ureido)propanoic acid]
EC50 (human TGR5 receptor): 1000 to 30000 nM | EC50 (mouse TGR5 receptor): 100 to 999 nM

N#Cc1ccc(CCNC(=O)[C@@H]2CCCN2c2cc(N3CCC(CCN4C(=O)N[C@@H](CS(=O)(=O)O)C4=O)CC3)nc(C(F)(F)F)n2)cc1 [Compound 122, ((R)-1-(2-(1-(6-((S)-2-((4-cyanophenethyl)carbamoyl)pyrrolidin-1-yl)-2-(trifluoromethyl)pyrimidin-4-yl)piperidin-4-yl)ethyl)-2,5-dioxoimidazolidin-4-yl)methanesulfonic acid]
EC50 (human TGR5 receptor): < 100 nM | EC50 (mouse TGR5 receptor): < 100 nM

O=C(O)CCNC(=O)NCCC1CCN(c2cc(N3CCC[C@H]3C(=O)NCCc3ccc(-c4cccnc4)cc3)nc(C(F)(F)F)n2)CC1 [Compound 377, (S)-3-(3-(2-(1-(6-(2-((4-(pyridin-3-yl)phenethyl)carbamoyl)pyrrolidin-1-yl)-2-(trifluoromethyl)pyrimidin-4-yl)piperidin-4-yl)ethyl)ureido)propanoic acid]
EC50 (human TGR5 receptor): 100 to 999 nM | EC50 (mouse TGR5 receptor): 100 to 999 nM

N#Cc1ccc(CCNC(=O)[C@@H]2CCCN2c2cc(-c3ccc(CNC(=O)NCCS(=O)(=O)O)cc3)nc(C(F)(F)F)n2)cc1 [Compound 191, (S)-2-(3-(4-(6-(2-((4-cyanophenethyl)carbamoyl)pyrrolidin-1-yl)-2-(trifluoromethyl)pyrimidin-4-yl)benzyl)ureido)ethanesulfonic acid]
EC50 (human TGR5 receptor): 100 to 999 nM | EC50 (mouse TGR5 receptor): < 100 nM

N#Cc1ccc(CCNC(=O)[C@@H]2CCCN2c2cc(N3CCC(CCCC(=O)NCCN)CC3)nc(C(F)(F)F)n2)cc1 [Compound 92, (S)-1-(6-(4-(4-((2-aminoethyl)amino)-4-oxobutyl)piperidin-1-yl)-2-(trifluoromethyl)pyrimidin-4-yl)-N-(4-cyanophenethyl)pyrrolidine-2-carboxamide]
EC50 (human TGR5 receptor): < 100 nM | EC50 (mouse TGR5 receptor): < 100 nM

O=C(CCCC1CCN(c2cc(N3CCC[C@H]3C(=O)NCCc3cccc(-c4ccncc4)c3)nc(C(F)(F)F)n2)CC1)NCS(=O)(=O)O [Compound 354, (S)-(4-(1-(6-(2-((3-(pyridin-4-yl)phenethyl)carbamoyl)pyrrolidin-1-yl)-2-(trifluoromethyl)pyrimidin-4-yl)piperidin-4-yl)butanamido)methanesulfonic acid]
EC50 (human TGR5 receptor): 1000 to 30000 nM | EC50 (mouse TGR5 receptor): 100 to 999 nM

N#CCCC1CCN(c2cc(N3CCC[C@H]3C(=O)NCCc3ccc(C(F)(F)F)cc3)nc(C(F)(F)F)n2)CC1 [Compound 11]
EC50 (human TGR5 receptor): < 100 nM | EC50 (mouse TGR5 receptor): < 100 nM

N#Cc1ccc(CCNC(=O)[C@@H]2CCCN2c2cc(N3CCC(CCCO)CC3)nc(C(F)(F)F)n2)cc1 [Compound 23]
EC50 (human TGR5 receptor): < 100 nM | EC50 (mouse TGR5 receptor): < 100 nM

N#Cc1ccc(CCNC(=O)[C@@H]2CCCN2c2cc(-c3ccc(CN4CCNCC4)cc3)nc(C(F)(F)F)n2)cc1 [Compound 187, (S)-N-(4-cyanophenethyl)-1-(6-(4-(piperazin-1-ylmethyl)phenyl)-2-(trifluoromethyl)pyrimidin-4-yl)pyrrolidine-2-carboxamide]
EC50 (human TGR5 receptor): 1000 to 30000 nM | EC50 (mouse TGR5 receptor): 100 to 999 nM

N#Cc1ccc(CCNC(=O)[C@@H]2CCCN2c2cc(N3CCC(CCCC(=O)NCCNc4ncnc5c4ncn5[C@@H]4O[C@H](CO)C(O)C4O)CC3)nc(C(F)(F)F)n2)cc1 (stereo partly drawn) [Compound 97, (2S)-N-(4-cyanophenethyl)-1-(6-(4-(4-((2-((9-((2R,5R)-3,4-dihydroxy-5-(hydroxymethyl)tetrahydrofuran-2-yl)-9H-purin-6-yl)amino)ethyl)amino)-4-oxobutyl)piperidin-1-yl)-2-(trifluoromethyl)-pyrimidin-4-yl)pyrrolidine-2-carboximide]
EC50 (human TGR5 receptor): < 100 nM | EC50 (mouse TGR5 receptor): < 100 nM

CCOC(=O)CCNC(=O)NCCC1CCN(c2cc(N3CC[C@H]3C(=O)NCCc3ccc(C#N)cc3)nc(C(F)(F)F)n2)CC1 [Compound 267, (S)-ethyl 3-(3-(2-(1-(6-(2-((4-cyanophenethyl)carbamoyl)azetidin-1-yl)-2-(trifluoromethyl)pyrimidin-4-yl)piperidin-4-yl)ethyl)ureido)propanoate]
EC50 (human TGR5 receptor): < 100 nM | EC50 (mouse TGR5 receptor): < 100 nM

N#Cc1ccc(CCNC(=O)[C@@H]2CCCN2c2cc(N3CCC(CCCC(=O)N[C@H](CCCNC(=N)N)C(=O)N[C@H](CCC(=O)O)C(=O)O)CC3)nc(C(F)(F)F)n2)cc1 [Compound 203, (R)-2-((R)-2-(4-(1-(6-((S)-2-((4-cyanophenethyl)carbamoyl)pyrrolidin-1-yl)-2-(trifluoromethyl)pyrimidin-4-yl)piperidin-4-yl)butanamido)-5-guanidino-pentanamido)pentanedioic acid]
EC50 (human TGR5 receptor): < 100 nM | EC50 (mouse TGR5 receptor): < 100 nM

O=C(O)CCCC1CCN(c2cc(N3C[C@H](O)C[C@H]3C(=O)NCCc3ccc(C(F)(F)F)cc3)nc(C(F)(F)F)n2)CC1 [Compound 212, 4-(1-(6-((2S,4R)-4-hydroxy-2-((4-(trifluoromethyl)phenethyl)carbamoyl)pyrrolidin-1-yl)-2-(trifluoromethyl)pyrimidin-4-yl)piperidin-4-yl)butanoic acid]
EC50 (human TGR5 receptor): 100 to 999 nM | EC50 (mouse TGR5 receptor): < 100 nM

COCCC1CCN(c2cc(N3CCC[C@H]3C(=O)NCCc3ccc(C#N)cc3)nc(C(F)(F)F)n2)CC1 [Compound 25]
EC50 (human TGR5 receptor): < 100 nM | EC50 (mouse TGR5 receptor): < 100 nM

N#Cc1ccc(CCNC(=O)[C@@H]2CCCN2c2cc(-c3ccc(CCC(=O)O)cc3)nc(C(F)(F)F)n2)cc1 [Compound 188, (S)-3-(4-(6-(2-((4-cyanophenethyl)carbamoyl)pyrrolidin-1-yl)-2-(trifluoromethyl)pyrimidin-4-yl)phenyl)propanoic acid]
EC50 (human TGR5 receptor): 100 to 999 nM | EC50 (mouse TGR5 receptor): < 100 nM

N#Cc1ccc(CCNC(=O)[C@@H]2CCCN2c2cc(-c3ccc(CNC(=O)NCCCS(=O)(=O)O)cc3)nc(C(F)(F)F)n2)cc1 [Compound 193, (S)-3-(3-(4-(6-(2-((4-cyanophenethyl)carbamoyl)pyrrolidin-1-yl)-2-(trifluoromethyl)pyrimidin-4-yl)benzyl)ureido)propane-1-sulfonic acid]
EC50 (human TGR5 receptor): 100 to 999 nM | EC50 (mouse TGR5 receptor): < 100 nM

N#Cc1ccc(CCNC(=O)[C@@H]2CCCN2c2cc(N3CCC(CCNC(=O)NCCNC(=O)[C@@H](N)CS(=O)(=O)O)CC3)nc(C(F)(F)F)n2)cc1 [Compound 373, (R)-2-amino-3-((2-(3-(2-(1-(6-((S)-2-((4-cyanophenethyl)carbamoyl)pyrrolidin-1-yl)-2-(trifluoromethyl)pyrimidin-4-yl)piperidin-4-yl)ethyl)ureido)ethyl)amino)-3-oxopropane-1-sulfonic acid]
EC50 (human TGR5 receptor): < 100 nM | EC50 (mouse TGR5 receptor): < 100 nM

N#Cc1ccc(CCNC(=O)[C@@H]2CCN2c2cc(N3CCC(CCNC(=O)NCCOCCNC(=O)C(F)(F)F)CC3)nc(C(F)(F)F)n2)cc1 [Compound 357, (S)-N-(4-cyanophenethyl)-1-(6-(4-(13,13,13-trifluoro-4,12-dioxo-8-oxa-3,5,11-triazatridecyl)piperidin-1-yl)-2-(trifluoromethyl)pyrimidin-4-yl)azetidine-2-carboxamide]
EC50 (human TGR5 receptor): < 100 nM | EC50 (mouse TGR5 receptor): < 100 nM
